Measurements reported in paper PMC8778818, “Synthesis, Structural Characterization and Anticancer Activity of New 5-Trifluoromethyl-2-thioxo-thiazolo[4,5-d]pyrimidine Derivatives” (Pharmaceuticals, 2022).

Experiments:
786-0 = experiment: NCI-60 screen, Renal Cancer 786-0; assay type: cell-based; details: for Growth of Cells (%): 786-0, 10^−5 M one dose
T-47D = experiment: NCI-60 screen, Breast Cancer T-47D; assay type: cell-based; details: for Growth of Cells (%): 10^−5 M one dose
MDA-MB-468 = experiment: NCI-60 screen, Breast Cancer MDA-MB-468; assay type: cell-based, human; details: for Growth of Cells (%): MDA-MB-468, 10^−5 M one dose
Procedure: The search for the cytotoxic activity of new derivatives usually starts with in vitro cell-based screening. Four compounds 2b (NSC D-745983/1), 3b (NSC D-766111/1), 4b (NSC D-785591/1) and 4c (NSC D-771706/1), selected by the National Cancer Institute were tested in the anticancer screen for a panel of approximately 60 human disease-oriented tumor cell lines, organized into subpanels derived from nine human cancer types—leukemia, melanoma, and cancers of the lung, colon, brain, breast, ovary, prostate, and kidney. They were initially tested at only one concentration of 10 µM (10^−5 M) for each cell line, which were inoculated and preincubated on a microtiter plate for […]. The results of the one-dose anticancer assay for the tested new compounds are reported as the percentage of the treated cell growth in comparison with untreated no-drug control. This allows for detection of the growth inhibition—values 0–100 and cytotoxicity; negative numbers mean cell death.
Antitumor activity in five dose testing (10^−4−10^−8 M) is expressed by three different dose–response parameters for each of the 60 human tumor cell lines. The GI50 value (molar concentration causing a half-growth inhibition), TGI (molar concentration required for total growth inhibition), which signifies the cytostatic effect, and LC50 (molar concentration of the compound required for 50% cell death). LC50 signifies the cytotoxic effect. […] Nevertheless, the selectivity for GI50 can be seen for several cell lines within subpanel leukemia (SR, log GI50 −6.36) and non-small cell lung cancer (NCI-H522, log GI50 −6.69).
The antitumor screening (NCI-60) was performed at the National Cancer Institute, Bethesda, USA. A total panel of approximately 60 human tumor cell lines derived from nine different cancer types (leukemia, non-small cell lung, colon, brain, melanoma, ovarian, renal, prostate and breast) formed the basis of this in vitro test. The origins and processing of the cell lines used in the study were described previously. First, the compounds were evaluated in a primary anticancer assay at 10^−5 M. Results for each tested compound are reported as the percent of growth of the treated cells. […] The human tumor cell lines of the cancer screening panel were grown in an RMPI 1640 medium containing 5% fetal bovine serum and 2 mM of L-glutamine. Each cell line was inoculated and preincubated at 37 °C, 5% CO2, 95% air and 100% relative humidity for 24 h, before the addition of the test compound into 96-well microtiter plates in 100 µL at plating densities ranging from 5000 to 40,000 cells/well. The density of inoculum depends on the type of tumor cell and its growth characteristics. The screened compounds were solubilized in dimethyl sulfoxide at 400-fold the desired final concentration and stored frozen. At the time of the test agents’ addition, an aliquot of frozen concentrate was thawed and diluted to twice the desired final concentration with complete medium containing 50 µg/mL gentamicin. Next, the test compounds were evaluated at the four additional 10-fold dilutions to reach the final concentrations plus control. Aliquots of 100 µL of the different dilutions (100, 10, 1, […] µM/mL) of the tested compounds were added to microtiter wells, and the culture was incubated for 48 h under the same conditions. Cell were fixed in situ by the addition of 50 µL of cold 50% trichloroacetic acid and incubated for 60 min at 4 °C. The supernatant was discarded; plates were washed five times with water and air-dried. Sulforhodamine B at 0.4% in 1% acetic acid, 100 µL, was added to each well, then plates were incubated for 10 min at room temperature. Unbound dye was removed by washing five times with 1% acetic acid and air dried. The protein-bound stain was solubilized with a […] trizma base and the absorbance was read on an automated plate reader. A wavelength of 515 nm was used to read optical densities. […]

NCI-H226 = experiment: NCI-60 screen, Non-Small Cell Lung Cancer NCI-H226; assay type: cell-based, human; details: for Growth of Cells (%): NCI-H226, 10^−5 M one dose
LOX IMVI = experiment: NCI-60 screen, Melanoma LOX IMVI; assay type: cell-based, human; details: for Growth of Cells (%): 10^−5 M one dose
NCI-H460 = experiment: NCI-60 screen, Non-Small Cell Lung Cancer NCI-H460; assay type: cell-based, human; details: for Growth of Cells (%): NCI-H460, 10^−5 M one dose
SF-539 = experiment: NCI-60 screen, CNS Cancer SF-539; assay type: cell-based, human; details: for Growth of Cells (%): SF-539, 10^−5 M one dose
SK-MEL-5 = experiment: NCI-60 screen, Melanoma SK-MEL-5; assay type: cell-based, human; details: for Growth of Cells (%): SK-MEL-5, 10^−5 M one dose
[1] = Homo sapiens, five doses 10^−4–10^−8 M

O=c1[nH]c(C(F)(F)F)nc2c1sc(=S)n2-c1ccccc1 [Compound 2b, 3-phenyl-2-thioxo-5-(trifluoromethyl)-2,3-dihydro[1, 3]thiazolo[4,5-d]pyrimidin-7(6H)-one]
Growth of Cells (%) (786-0): 104.97% | Growth of Cells (%) (T-47D; T-47D): 108.41% | Growth of Cells (%) (MDA-MB-468): 91.37% | Growth of Cells (%) (NCI-H226): 103.60% | Growth of Cells (%) (LOX IMVI): 84.58% | Growth of Cells (%) (NCI-H460): 123.50% | Growth of Cells (%) (SF-539): 114.10%

FC(F)(F)c1nc(Cl)c2sc(=S)n(-c3ccccc3)c2n1 [Compound 3b, 7-chloro-3-phenyl-5-(trifluoromethyl)[1, 3]thiazolo[4,5-d]pyrimidine-2(3H)-thione]
Growth of Cells (%) (786-0): 90.12% | log TGI (786-0; 786-0, five doses 10^−4–10^−8 M): −5.42 log M | GI50 (786-0; Homo sapiens, 786-0, five doses 10^−4–10^−8 M): 1.95 µM | CC50 (786-0; Homo sapiens, 786-0, five doses 10^−4–10^−8 M, read-out: log LC50 (the source's name) (converted)): 7.41 µM | GI50 (SK-MEL-5; Homo sapiens, SK-MEL-5, five doses 10^−4–10^−8 M): 2.19 µM | CC50 (SK-MEL-5; Homo sapiens, SK-MEL-5, five doses 10^−4–10^−8 M, read-out: log LC50 (the source's name) (converted)): 12.3 µM | Growth of Cells (%) (SK-MEL-5): 81.95% | log TGI (SK-MEL-5; SK-MEL-5, five doses 10^−4–10^−8 M): −5.31 log M | GI50 (T-47D; Homo sapiens, T47D, read-out: log GI50 (converted)): 1.86 µM | CC50 (T-47D; Homo sapiens, T47D, T-47D, five doses 10^−4–10^−8 M, read-out: log LC50 (the source's name) (converted)): 66.1 µM | Growth of Cells (%) (T-47D; T-47D): −35.57% | log TGI (T-47D; T-47D, five doses 10^−4–10^−8 M): −5.32 log M | GI50 (MDA-MB-468; Homo sapiens, MDA-MB-468, five doses 10^−4–10^−8 M): 1.7 µM | CC50 (MDA-MB-468; Homo sapiens, MDA-MB-468, five doses 10^−4–10^−8 M, read-out: log LC50 (the source's name) (converted)): 7.41 µM | Growth of Cells (%) (MDA-MB-468): 54.38% | log TGI (MDA-MB-468; MDA-MB-468, five doses 10^−4–10^−8 M): −5.45 log M | GI50 (NCI-H226; Homo sapiens, NCI-H226, five doses 10^−4–10^−8 M): 13.8 µM | CC50 (NCI-H226; Homo sapiens, NCI-H226, five doses 10^−4–10^−8 M, read-out: log LC50 (the source's name) (converted)): > 100 µM | Growth of Cells (%) (NCI-H226): 89.12% | log TGI (NCI-H226; NCI-H226, five doses 10^−4–10^−8 M): −4.31 log M | Growth of Cells (%) (LOX IMVI): 3.11% | GI50 (LOX IMVI; [1]): 1.78 µM | LC50 (LOX IMVI; [1]): 6.17 µM | log TGI (LOX IMVI; five doses 10^−4–10^−8 M): −5.48 log M | GI50 (NCI-H460; Homo sapiens, NCI-H460, five doses 10^−4–10^−8 M): 3.24 µM | CC50 (NCI-H460; Homo sapiens, NCI-H460, five doses 10^−4–10^−8 M, read-out: log LC50 (the source's name) (converted)): 50.1 µM | Growth of Cells (%) (NCI-H460): 68.89% | log TGI (NCI-H460; NCI-H460, five doses 10^−4–10^−8 M): −4.99 log M | GI50 (SF-539; Homo sapiens, SF-539, five doses 10^−4–10^−8 M): 1.66 µM | CC50 (SF-539; Homo sapiens, SF-539, five doses 10^−4–10^−8 M, read-out: log LC50 (the source's name) (converted)): 5.89 µM | Growth of Cells (%) (SF-539): 75.80% | log TGI (SF-539; SF-539, five doses 10^−4–10^−8 M): −5.50 log M

CCNc1nc(C(F)(F)F)nc2c1sc(=S)n2-c1ccccc1 [Compound 4b, 7-(ethylamino)-3-phenyl-5-(trifluoromethyl)[1, 3]thiazolo[4,5-d]pyrimidine-2(3H)-thione]
Growth of Cells (%) (786-0): 101.39% | Growth of Cells (%) (SK-MEL-5): 87.63% | Growth of Cells (%) (T-47D; T-47D): 73.92% | Growth of Cells (%) (MDA-MB-468): 81.60% | Growth of Cells (%) (NCI-H226): 88.51% | Growth of Cells (%) (LOX IMVI): 88.57% | Growth of Cells (%) (NCI-H460): 100.34% | Growth of Cells (%) (SF-539): 100.98%

Fc1ccc(CNc2nc(C(F)(F)F)nc3c2sc(=S)n3-c2ccccc2)cc1 [Compound 4c]
Growth of Cells (%) (786-0): 99.38% | Growth of Cells (%) (SK-MEL-5): 105.71% | Growth of Cells (%) (T-47D; T-47D): 85.37% | Growth of Cells (%) (MDA-MB-468): 96.15% | Growth of Cells (%) (NCI-H226): 112.41% | Growth of Cells (%) (LOX IMVI): 109.59% | Growth of Cells (%) (NCI-H460): 109.73% | Growth of Cells (%) (SF-539): 102.28%
